According to patent US11174253B2, “Compound and pharmaceutical composition containing the same” (ALPHALA CO., LTD., priority 2017, dated 2021):

Columns and labels:
Type in all cases: cell-based
[1] = system: SW480 colon adenocarcinoma cell line; assay: MTS cell viability assay (NCI-60 methodology), GI50/LC50, SW480; conditions: Homo sapiens, 48 h, SW480 cells, 2 days incubation with compound
Method: (§1) The number of treated cells was determined by GE InCell 2200 system, and treated cells were stained with Hoechst 33342 which can reveal the remained nucleus in culture plate. The proportion of survival cells then were calculated with the ratio of treated/non-treated cells. The growth inhibition/cytotoxic effect of selected compounds were evaluated by the following protocol of NCI-60 screening platform. The human tumor cell lines are plating on a 96 well plate in a fixed density 24 hr prior compound treatment. Compounds with multiple concentrations are then added into each well for further 48 hr incubation. Cell viability is assessed by MTS method and the potency of compound is represented by GI50 and LC50 calculated by MTS result.
(§2) The cell viability measurement is based on the NCI-60 screening methodology (Nat. Rev. Cancer 6, 813-823, 2006). Briefly, cells are inoculated into 96-well plates at the optimal plating density. After 24 h, one of the two plates for each cell line is processed to determine a time zero cell viability (Tz) by MTS assay (Promega). Compounds are added over a 2-fold serial dilution to provide a total five drug concentrations plus DMSO control. Plates are incubated for a further 2 days, then measured cell viability by MTS assay [control growth (C) and test growth in the presence of drug at the five concentration levels (Ti)]. Growth inhibition of 50% (GI50) is calculated from [(Ti−Tz)/(C−Tz)]×100=50, which is the drug concentration resulting in a 50% reduction of control cells during the drug incubation. The LC50 is calculated from [(Ti−Tz)/Tz]×100=−50, which is the drug concentration resulting in a 50% reduction at the end of the drug treatment as compared to that at the beginning.
(§3) Herein, Hep3B refers to hepatocellular carcinoma cell line, SW480 refers to colon adenocarcinoma cell line, and NCI-H460 refers to human lung cancer cell line.

[2] = system: Hep3B hepatocellular carcinoma cell line; assay: MTS cell viability assay (NCI-60 methodology), GI50/LC50, Hep3B; conditions: Homo sapiens, 48 h, Hep3B cells, 2 days incubation with compound
Method: as §1, §2, §3

[3] = system: hepatocellular carcinoma cell line Hep3B; assay: Growth inhibition of Hep3B cells, 48 hr treatment, Hoechst 33342 nucleus count (GE InCell 2200); conditions: Homo sapiens
In short: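 Compound exposure lasted 48 hr at 37° C, 5% CO2. Surviving nuclei were counted after Hoechst 33342 staining, and survival was expressed as the treated/non-treated cell number ratio, including the ratio at 10 μM compound.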

[4] = system: NCI-H460 human lung cancer cell line; assay: MTS cell viability assay (NCI-60 methodology), GI50/LC50, NCI-H460; conditions: 48 h, NCI-H460 cells, 2 days incubation with compound
Method: as §1, §2, §3

[5] = Table 5, ratio of number of tumor cells treated with 10 μM compound to non-treated cells
[6] = Table 1, ratio of number of tumor cells treated with 10 μM compound to non-treated cells
[7] = Table 6, ratio of number of tumor cells treated with 10 μM compound to non-treated cells

SMILES	GI50 [1] [µM]	LC50 (NCI-60 lethal concentration, 50% net cell loss vs time zero) [1] [µM]	GI50 [2] [µM]	LC50 [2] [µM]	viability at 10 µM [3, 5] [%]	GI50 [4] [µM]	LC50 (concentration giving 50% net cell loss versus time zero, NCI-60 definition) [4] [µM]	viability at 10 µM [3, 6] [%]	viability at 10 µM [3, 7] [%]	viability at 10 µM ([3]; Table 3, ratio of number of tumor cells treated with 10 μM compound to non-treated cells) [%]
CCCCOc1ccc(Oc2sc(NC(=O)c3ccc([N+](=O)[O-])s3)nc2-c2ccc(F)cc2)cc1 [Compound 5-66, N-(5-(4-butoxyphenoxy)-4-(4-fluorophenyl)thiazol-2-yl)-5-nitrothiophene-2-carboxamide]	0.95	2.81	0.52	0.76	43	0.39	1.13	–	–	–
CCOc1cnccc1-c1nnc(NC(=O)Cc2ccc3nc(N)sc3c2)s1 [Compound 1-25, 2-(2-aminobenzo[d]thiazol-6-yl)-N-(5-(3-ethoxypyridin-4-yl)-1,3,4-thiadiazol-2-yl)acetamide]	0.35	1.04	0.17	0.5	–	0.32	–	54	–	–
CCOc1cc(OCC)c(-c2nnc(N(C)C(=O)Cc3ccc4nc(N)sc4c3)s2)cn1 [Compound 1-37, 2-(2-aminobenzo[d]thiazol-6-yl)-N-(5-(4,6-diethoxypyridin-3-yl)-1,3,4-thiadiazol-2-yl)-N-methylacetamide]	1.26	–	0.84	1.24	–	1.35	–	47	–	–
CC(C)(C)c1ccc(-c2nc(NC(=O)c3ccc([N+](=O)[O-])s3)sc2Oc2ccc(F)cc2)cc1 [Compound 5-20, N-(4-(4-(tert-butyl)phenyl)-5-(4-fluorophenoxy)thiazol-2-yl)-5-nitrothiophene-2-carboxamide]	0.88	3.73	0.79	2.63	62	2.76	8.34	–	–	–
O=C(Nc1nc(-c2ccc(F)cc2)c(Oc2ccccc2OC(F)(F)F)s1)c1ccc([N+](=O)[O-])s1 [Compound 5-32, N-(4-(4-fluorophenyl)-5-(2-(trifluoromethoxy)phenoxy)thiazol-2-yl)-5-nitrothiophene-2-carboxamide]	0.4	2.26	0.46	2.17	48	0.69	1.73	–	–	–
CCCOc1ccc(-c2nc(NC(=O)c3ccc([N+](=O)[O-])s3)sc2Oc2ccc(F)cc2)cc1 [Compound 5-30, N-(5-(4-fluorophenoxy)-4-(4-propoxyphenyl)thiazol-2-yl)-5-nitrothiophene-2-carboxamide]	0.53	2.82	0.92	2.23	40	0.7	2.15	–	–	–
CCCCOc1ccc(-c2nc(NC(=O)c3ccc([N+](=O)[O-])s3)sc2Oc2ccccc2)cc1 [Compound 5-56, N-(4-(4-butoxyphenyl)-5-phenoxythiazol-2-yl)-5-nitrothiophene-2-carboxamide]	1.54	9.32	0.55	2.31	40	0.7	1.55	–	–	–
CCOc1ccc(-c2nnc(NC(=O)Cc3ccc4nc(N)sc4c3)s2)c(OCC)c1 [Compound 1-18, 2-(2-aminobenzo[d]thiazol-6-yl)-N-(5-(2,4-diethoxyphenyl)-1,3,4-thiadiazol-2-yl)acetamide]	0.19	0.58	0.16	0.48	–	0.2	0.6	70	–	–
COc1ccc(-c2sc(NC(=O)c3ccc([N+](=O)[O-])s3)nc2-c2ccc(C(C)(C)C)cc2)cc1 [Compound 6-54, N-(4-(4-(tert-butyl)phenyl)-5-(4-methoxyphenyl)thiazol-2-yl)-5-nitrothiophene-2-carboxamide]	1.38	2.35	0.61	0.71	–	0.44	1.59	–	25	–
Nc1nc2ccc(CC(=O)Nc3nc(-c4ccc(Br)cc4)c(-c4ccc(Br)cc4)s3)cc2s1 [Compound 3-10, 2-(2-aminobenzo[d]thiazol-6-yl)-N-(4,5-bis(4-bromophenyl)thiazol-2-yl)acetamide]	1.21	7.08	0.51	1.29	–	0.84	6.62	–	–	52
CCC(C)(C)c1ccc(-c2nc(NC(=O)c3ccc([N+](=O)[O-])s3)sc2-c2ccc(F)cc2F)cc1 [Compound 6-47, N-(5-(2,4-difluorophenyl)-4-(4-(tert-pentyl)phenyl)thiazol-2-yl)-5-nitrothiophene-2-carboxamide]	0.64	1.39	0.59	0.66	–	0.58	0.93	–	33	–
CC(C)(C)c1ccc(-c2nc(NC(=O)c3ccc([N+](=O)[O-])s3)sc2Oc2ccccc2C(F)(F)F)cc1 [Compound 5-75, N-(4-(4-(tert-butyl)phenyl)-5-(2-(trifluoromethyl)phenoxy)thiazol-2-yl)-5-nitrothiophene-2-carboxamide]	0.73	1.67	0.8	1.31	34	0.67	1.11	–	–	–
CC(C)(C)c1ccc(-c2nc(NC(=O)c3ccc([N+](=O)[O-])s3)sc2Oc2cccc(F)c2)cc1 [Compound 5-22, N-(4-(4-(tert-butyl)phenyl)-5-(3-fluorophenoxy)thiazol-2-yl)-5-nitrothiophene-2-carboxamide]	2.5	4.27	1.43	4.03	30	2.09	4.53	–	–	–
CC(C)(C)c1ccc(-c2nc(NC(=O)c3ccc([N+](=O)[O-])s3)sc2-c2ccc(F)cc2)cc1 [Compound 6-24, N-(4-(4-(tert-butyl)phenyl)-5-(4-fluorophenyl)thiazol-2-yl)-5-nitrothiophene-2-carboxamide]	1.37	3.57	0.99	1.93	–	1.56	4.22	–	30	–
CCCCOc1ccc(-c2nc(NC(=O)c3ccc([N+](=O)[O-])s3)sc2-c2ccc(F)cc2)cc1 [Compound 6-18, N-(4-(4-butoxyphenyl)-5-(4-fluorophenyl)thiazol-2-yl)-5-nitrothiophene-2-carboxamide]	6.49	–	1.38	2.17	–	2.01	8.26	–	26	–
CCC(C)(C)c1ccc(-c2nc(NC(=O)c3ccc([N+](=O)[O-])s3)sc2-c2ccc(F)cc2)cc1 [Compound 6-40, N-(5-(4-fluorophenyl)-4-(4-(tert-pentyl)phenyl)thiazol-2-yl)-5-nitrothiophene-2-carboxamide]	0.92	1.35	0.54	3.03	–	1.88	3.61	–	25	–
CC(C)(C)c1ccc(-c2nc(NC(=O)c3ccc([N+](=O)[O-])s3)sc2-c2cc(F)cc(F)c2)cc1 [Compound 6-38, N-(4-(4-(tert-butyl)phenyl)-5-(3,5-difluorophenyl)thiazol-2-yl)-5-nitrothiophene-2-carboxamide]	0.74	4.06	0.63	1.61	–	0.7	1.65	–	30	–
